Measurements published in US4980377A, “1-(aminophenyl)-2-aminopropanone derivatives” (Laboratoire L. Lafon, priority 1984, dated 1990).
“Also recorded” adds a separate entry of the source. Structures can show the parent of a compound that is named as a salt.

Experiments:
mice [1] = assay: Overall behavior and reactivities in mice; format: in vivo, mouse; settings: dose not stated
Description: (§1) In the neuropsychopharmacological study which follows, a solution of CRL 41 153 in distilled water (pH 1.5) was administered intraperitoneally in a volume of 20 ml/kg to male mice and 5 ml/kg to male rats.
(§2) Groups of three animals are observed before and then 0.25 hour, 0.50 hour, 1 hour, 2 hours, 3 hours and 24 hours after the administration of CRL 41 153.

rats [2] = assay: Overall behavior and reactivities in rats; format: in vivo, rat; settings: dose not stated
Description: as §1, §2

mice [3] = assay: Interaction with apomorphine in mice; format: in vivo, mouse; settings: i.p.
Description: Groups of 6 mice receive CRL 41 153 0.5 hour before the subcutaneous injection of 1 or 16 mg/kg of apomorphine.

rats [4] = assay: Interaction with apomorphine in rats; format: in vivo, rat; settings: i.p.
Description: CRL 41 153 is administered to groups of 6 rats 0.5 hour before the subcutaneous injection of 0.5 mg/kg of apomorphine.

rats [5] = assay: Interaction with amphetamine; format: in vivo, rat; settings: i.p.
Description: Amphetamine (2 mg/kg) is injected intraperitoneally into groups of 6 rats 30 minutes after the administration of CRL 41 153. […] 4 mg/kg and 16 mg/kg, CRL 41 153 potentiates the intensity and duration of the stereotypies induced by amphetamine.

mice [6] = assay: Interaction with reserpine; format: in vivo, mouse; settings: i.p.
Description: Four hours after the intraperitoneal injection of 2.5 mg/kg of reserpine, groups of 6 mice receive CRL 41 153.

mice [7] = assay: Interaction with oxotremorine; format: in vivo, mouse; settings: i.p.
Description: CRL 41 153 is administered to groups of 6 mice 0.5 hour before the intraperitoneal injection of 0.5 mg/kg of oxotremorine.

mice [8] = assay: Spontaneous motility; format: in vivo, mouse; settings: i.p.
Description: 0.5 hour after they have received CRL 41 153, the mice (6 per dose, 12 control animals) are placed in an actimeter, where their motility is recorded for 30 minutes.

mice [9] = assay: Motility reduced by habituation to the enclosure; format: in vivo, mouse; settings: i.p.
Description: After they have stayed In the actimeters for 18 hours, (he mice (6 per dose, 12 control animals) receive CRL 41 153. They are immediately returned to their respective enclosures and, half an hour later, their motility is recorded for 30 minutes.

mice [10] = assay: Motility reduced by hypoxic aggression; format: in vivo, mouse; settings: i.p.
Description: Half an hour after they have received CRL 41 153, the mice (10 per dose, 20 control animals) are subjected to acute hypobaric anoxia [pressure reduction of 600 mm Hg (i.e. about 8×10^4 Pa) in 90 seconds; release of vacuum in 45 seconds] and are then placed in an actimeter, where their motility is recorded for 10 minutes.

mice [11] = assay: Interaction with barbital; format: in vivo, mouse; settings: i.p., barbital 220 mg/kg
Description: Half an hour after the administration of CRL 41 153, groups of 10 mice receive an intraperitoneal injection of barbital (220 mg/kg).

mice [12] = assay: Behavioral despair; format: in vivo, mouse; settings: forcibly immersed mice, i.p.
Source text: Half an hour after they have received CRL 41 153, groups of 6 mice are placed in a beaker filled with water to a height of 6 cm. The total period of immobility between the 2nd and 6th minutes following immersion is noted.

dogs = assay: Cardiovascular study in anesthetized dogs; format: in vivo, dog
In short: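 Measurements: blood pressure, heart rate, femoral and vertebral arterial flow, rectal temperature, skin colour, and for CRL 41 194 bile colour via bile-duct catheter. Doses rose stepwise 0.1–10 mg/kg intraduodenally in solution under nembutal anaesthesia; two dogs got CRL 41 194, four CRL 41 221.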

[13] = test system: cellular and humoral immunity; assay: Test for cells forming lysis areas; settings: in vivo
[14] = test system: cellular and humoral immunity; assay: Delayed hypersensitivity to the red blood corpuscles of sheep; format: in vivo
man = assay: Clinical study: treatment of depressions; format: in vivo, human
[15] = test system: gravid White New Zealand female rabbits; assay: Teratogenicity in gravid White New Zealand rabbits; format: in vivo, rabbit; settings: day 5 to day 18 of gestation; for Affected foetuses, %: normal limit 1.5%
In short: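 Fetuses harvested by cesarean on gestation day 29 were scored for number and for any malformation (limb blockade, anury, tail or skull defects, exencephaly).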

[16] = pH of solutions in distilled water; format: physicochemical
Description: The neuropsychopharmacological study was undertaken according to the procedures described above for CRL 41 153, CRL 41 213 being adminstered intraperitoneally, in solution in distilled water, in a volume of 20 ml/kg to male mice and a volume of 5 ml/kg to male rats, and the pH of the injected solution varying with the concentration of CRL 41 213 according to the data given in Table II below.

CNS = assay: Neuropsychopharmacological profile as a whole; format: in vivo, mice and rats
Description: as §1

immunity = assay: Immunological study (overall); settings: in vivo; dihydrochloride
[17] = anesthetized dogs, intraduodenal

CC(C(=O)c1ccc(N)cc1)N1CCOCC1 (stereo not shown) [CRL 41 237, 1-(4-aminophenyl)-2-morpholinopropanone dihydrochloride]
Overall behavior: observed effects (summary) (mice [1]): excitation with hyperreactivity in mice and rats | Stereotype movements (summary) (mice [1]): the presence of stereotype movements in mice and rats | Overall behavior: observed effects (summary) (rats [2]): excitation with hyperreactivity in mice and rats | Stereotype movements (summary) (rats [2]): the presence of stereotype movements in mice and rats | Effect on hypothermia induced by apomorphine (mice [3]): antagonism of the hypothermia | Effect on stereotypies induced by apomorphine (rats [4]): potentiation of the stereotypies | Effect on stereotypies induced by amphetamine (rats [5]): potentiation of the stereotypies | Effect on hypothermia induced by reserpine (mice [6]): antagonism of the hypothermia | Effect on ptosis induced by reserpine (mice [6]): antagonism of the ptosis induced by reserpine | Effect on hypothermic action of oxotremorine (mice [7]): antagonism of the hypothermia | Effect on trembling induced by oxotremorine (mice [7]): antagonism of the trembling induced by oxotremorine | Spontaneous motor activity (mice [8]): an increase in the spontaneous motor activity of mice | Motor activity of mice accustomed to their enclosure (mice [9]): resumption in the motor activity of mice accustomed to their enclosure | Motor recovery of mice after hypobaric hypoxia (mice [10]): improvement in the motor recovery | Duration of the sleep induced by barbital (mice [11]): a reduction in the duration of the sleep induced by barbital | Period of immobility due to despair (mice [12]): a reduction in the period of immobility | Femoral flow (dogs; anesthetized dog, intravenous, additional 10 mg/kg): caused an increase in the femoral flow | Effect on hypertension induced by norepinephrine (dogs; anesthetized dogs): distinctly increases the hypertension induced by norepinephrine | Effects of isoprenaline (not further specified) (dogs; anesthetized dogs): does not modify the effects of isoprenaline | Rectal temperature (dogs; anesthetized dogs): The rectal temperature rises gradually | Skin temperature (dogs; anesthetized dogs): a large increase in the skin temperature | Blood pressure (dogs; [17]): No action was observed on the blood pressure | Femoral flow (dogs; [17]): No action was observed on the blood pressure, the femoral flow and the vertebral flow | Heart rate (dogs; [17]): slight tachycardiac effect at 20 mg/kg | Vertebral flow (dogs; [17]): No action was observed on the blood pressure, the femoral flow and the vertebral flow | Activity in the test for cells forming lysis areas [13]: strong activity according to the abovementioned test for cells forming lysis areas, at a dose of 100 mg/kg, administered orally | Activity on the delayed hypersensitivity reaction [14]: weaker activity on the abovementioned delayed hypersensitivity reaction to red blood corpuscles of sheep, at doses of 0.1 mg/kg to 10 mg/kg, administered orally | Result in the treatment of depressions (man): good results were obtained by oral administration in the treatment of depressions at a daily dose of -0 mg | Affected foetuses, number ([15]; 5 mg/kg daily): 0 | Total foetuses (live) ([15]; 5 mg/kg daily): 91 | Affected foetuses, % ([15]; 5 mg/kg daily): 0% | Affected foetuses, number ([15]; 10 mg/kg daily): 1 | Total foetuses (live) ([15]; 10 mg/kg daily): 96 | Affected foetuses, % ([15]; 10 mg/kg daily): 1.04% | Affected foetuses, number ([15]; 50 mg/kg daily): 1 | Total foetuses (live) ([15]; 50 mg/kg daily): 88 | Affected foetuses, % ([15]; 50 mg/kg daily): 1.13% | pH ([16]; 0.1 g/liter in distilled water): 5.0 | pH ([16]; 0.2 g/liter in distilled water): 4.5 | pH ([16]; 0.4 g/liter in distilled water): 4.0 | pH ([16]; 0.8 g/liter in distilled water): 3.5 | pH ([16]; 1.6 g/liter in distilled water): 3.0 | pH ([16]; 3.2 g/liter in distilled water): 2.5 | pH ([16]; 6.4 g/liter in distilled water): 2.0 | pH ([16]; 25 g/liter in distilled water): 1.5 | pH ([16]; 50 g/liter in distilled water): 1.0 | pH ([16]; ≤0.05 g/liter in distilled water): 5.5 | Stimulant effects (overall) (CNS; conclusion of the tests): stimulant effects | α-adrenergic stimulant effects (overall) (CNS; conclusion of the tests): effects showing peripheral α-adrenergic stimulation | Antidepressant effects (overall) (CNS; conclusion of the tests, dihydrochloride): good antidepressant; also recorded: antidepressant effects | Peripheral α-adrenergic signs (mydriasis, salivation, lacrimation, exophthalmos) (CNS; species and dose not stated, dihydrochloride): mydriasis | Immunological effect (overall) (immunity): immunostimulant or immunomodulating effects; also recorded: immunostimulant effects
